Broadly, the IC50 is the concentration needed to halve the response being measured. Read a low IC50 as inhibition by little substance. The term EC50 denotes the concentration that produces a half-maximal response. Higher therefore signals a need for much substance.

The target of experiment [1] is JNK1 (Homo sapiens (Human), UniProt P45983). In words: In Vitro JNK1 Assay (TR-FRET, phosphorylation of GST-c-Jun). The conditions noted are these: 0.2 nM active JNK1 kinase, 26.7 nM GST-c-Jun, 2 μM ATP, 30 min at room temperature. Type of experiment: biochemical. The method, boiled down: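 GST-c-Jun (residues 1-79) phosphorylation by JNK1 in 50 mM HEPES pH 7.0, MgCl2, 1 mM DTT, 0.1 mM Na3VO4, 0.2 mg/mL BSA, 30 min at room temperature. Stopped with EDTA plus anti-phospho-c-Jun antibody and read by TR-FRET 1 hr later. IC50 from percent inhibition over 10 serial dilutions.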
Chain of JNK1 (P45983 whole entry, the tested form may be a part): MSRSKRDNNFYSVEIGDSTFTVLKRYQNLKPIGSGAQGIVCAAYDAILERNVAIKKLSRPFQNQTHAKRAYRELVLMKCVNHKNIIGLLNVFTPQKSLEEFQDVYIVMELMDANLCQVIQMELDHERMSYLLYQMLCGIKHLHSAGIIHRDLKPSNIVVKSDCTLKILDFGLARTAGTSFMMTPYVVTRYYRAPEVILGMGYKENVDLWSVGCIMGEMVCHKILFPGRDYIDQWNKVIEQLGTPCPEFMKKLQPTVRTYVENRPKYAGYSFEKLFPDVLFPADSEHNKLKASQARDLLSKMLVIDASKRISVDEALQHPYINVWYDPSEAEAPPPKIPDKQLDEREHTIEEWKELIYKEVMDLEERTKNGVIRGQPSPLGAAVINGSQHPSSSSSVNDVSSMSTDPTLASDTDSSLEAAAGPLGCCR

Experiment [2] deals with phospho(Ser63)-c-jun in HK-2 cells. In words: Cell-Based Assay for JNK Inhibitors (in-cell ELISA, phospho(Ser63)-c-jun after TNFα). The conditions noted are these: HK-2 cells (human proximal tubule cells), 60 minutes compound, then 10 ng/mL TNFα for 30 minutes. The method, boiled down:
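HK-2 human proximal tubule cells were seeded at 40,000 cells/well, cultured 24 h, then serum-starved 16–24 h before TNFα stimulation with compound. Phospho(Ser63)-c-jun was quantified by in-cell ELISA on fixed, permeabilised cells, using a rabbit phospho-specific primary (overnight, 4 °C) and an HRP-linked anti-rabbit secondary. Absorbance was read at 450 nm.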
Background: In an ELISA, binding on a coated surface is turned into a signal by an enzyme label.

`COC(=O)c1c(CNC(=O)c2ccc(N3CCOCC3)nc2)c(=O)c2ccc(F)cc2n1-c1ccccc1` [Example I-169, 7-Fluoro-3-{[(6-morpholin-4-yl-pyridine-3-carbonyl)-amino]-methyl}-4-oxo-1-phenyl-1,4-dihydro-quinoline-2-carboxylic acid methyl ester]: in experiment [1], half-maximal inhibition (IC50) required 4 nM. Besides, the half-maximal effective concentration (EC50) in experiment [2] came to 2400 nM.

In the case of `COC(=O)c1c(CNC(=O)c2ccc(F)c(F)c2)c(=O)c2ccc(OC)cc2n1-c1ccccc1` [Example I-162, 7-Methoxy-3-[(3,4-difluorobenzoylamino)-methyl]-4-oxo-1-phenyl-1,4-dihydro-quinoline-2-carboxylic acid methyl ester], in experiment [1], the IC50 worked out at 39 nM. Moreover, in experiment [2], a half-maximal response (EC50) required 38000 nM.

With `COC(=O)c1c(CNC(=O)c2ccc(-c3ccn[nH]3)cc2)c(=O)c2ccc(C(F)(F)F)nc2n1-c1ccccc1` [Example I-156, 4-Oxo-1-phenyl-3-{[4-(2H-pyrazol-3-yl)-benzoylamino]-methyl}-7-trifluoromethyl-1,4-dihydro-[1,8]naphthyridine-2-carboxylic acid methyl ester], half-maximal inhibition in experiment [1] (IC50) required 30 nM. The response in experiment [2] was half-maximal at 8700 nM (EC50).

As for `COC(=O)c1c(CNC(=O)c2ccc(-c3nnc[nH]3)cc2)c(=O)c2ccc(Cl)cc2n1-c1ccccc1` [Example I-111, 7-Chloro-4-oxo-1-phenyl-3-{[4-(4H-[1,2,4]triazol-3-yl)-benzoylamino]-methyl}-1,4-dihydro-quinoline-2-carboxylic acid methyl ester], the concentration for half-maximal inhibition (IC50) in experiment [1] came to 5 nM. In experiment [2], this molecule came in with an EC50 of 1300 nM.

In turn, `COC(=O)c1c(CNC(=O)c2ccncc2)c(=O)c2ccc(Cl)cc2n1-c1ccccc1` [Example I-136, 7-Chloro-4-oxo-1-phenyl-3-{[(pyridine-4-carbonyl)-amino]-methyl}-1,4-di-hydro-quinoline-2-carboxylic acid methyl ester] displayed a half-maximal inhibitory concentration (IC50) in experiment [1] of 12 nM. Moreover, the midpoint of the response in experiment [2], the EC50, lay at 7900 nM.

The molecule `CS(=O)(=O)C1CCN(c2ccc(C(=O)NCc3cn(-c4ccccc4)c4cc(Cl)ccc4c3=O)cn2)CC1` [Example I-69, 4-Methanesulfonyl-3,4,5,6-tetrahydro-2H-[1,2′]bipyridinyl-5′-carboxylic acid (7-chloro-4-oxo-1-phenyl-1,4-dihydro-quinolin-3-ylmethyl)-amide] came in with a half-maximal inhibitory concentration (IC50) in experiment [1] of 24 nM. Besides, a half-maximal effect in experiment [2] (EC50) was put at 39000 nM.

With `CN(C)C(=O)c1c(CNC(=O)c2ccn(Cc3ccccc3)c(=O)c2)c(=O)c2ccc(Cl)cc2n1-c1ccccc1` [Example I-22, 3-{[(1-Benzyl-2-oxo-1,2-dihydro-pyridine-4-carbonyl)-amino]-methyl}-7-chloro-4-oxo-1-phenyl-1,4-dihydro-quinoline-2-carboxylic acid dimethylamide], in experiment [1], inhibition was half-maximal at 330 nM (IC50). The concentration for a half-maximal effect (EC50) in experiment [2] was determined as 25000 nM.

Consider `COC(=O)c1c(CNC(=O)C2CCN(C(C)=O)CC2)c(=O)c2ccc(Cl)cc2n1-c1ccccc1` [Example I-130, 3-{[(1-Acetyl-piperidine-4-carbonyl)-amino]-methyl}-7-chloro-4-oxo-1-phenyl-1,4-dihydro-quinoline-2-carboxylic acid methyl ester], for which half-maximal inhibition in experiment [1] (IC50) was put at 220 nM. In experiment [2], this molecule showed a concentration for a half-maximal effect (EC50) of 100000 nM.

As to `O=C(NCc1cn(-c2ccccc2)c2cc(Cl)ccc2c1=O)c1ccc(N2CCC(O)CC2)nc1` [Example I-76, 4-Hydroxy-3,4,5,6-tetrahydro-2H-[1,2′]bipyridinyl-5′-carboxylic acid (7-chloro-4-oxo-1-phenyl-1,4-dihydro-quinolin-3-ylmethyl)-amide], the IC50 in experiment [1] turned out to be 34 nM. Besides, the midpoint of the response in experiment [2], the EC50, lay at 48000 nM.

`O=C(NCc1cn(-c2ccccc2)c2cc(Cl)ccc2c1=O)c1ccc(N2CCS(=O)(=O)CC2)nc1` [Example I-80, N-(7-Chloro-4-oxo-1-phenyl-1,4-dihydro-quinolin-3-ylmethyl)-6-(1,1-dioxo-thiomorpholin-4-yl)-nicotinamide] registered a half-maximal inhibitory concentration (IC50) in experiment [1] of 56 nM. A half-maximal effect in experiment [2] (EC50) was put at 12000 nM.

`O=C(NCc1c(-c2ncco2)n(-c2ccccc2)c2cc(Cl)ccc2c1=O)c1ccnc(N2CCOCC2)c1` [Example I-2, N-(7-Chloro-2-oxazol-2-yl-4-oxo-1-phenyl-1,4-dihydro-quinolin-3-ylmethyl)-2-morpholin-4-yl-isonicotinamide] registered an IC50 in experiment [1] of 7 nM. The midpoint of the response in experiment [2], the EC50, lay at 2700 nM.

`COC1CCN(c2ccc(C(=O)NCc3cn(-c4ccccc4)c4cc(Cl)ccc4c3=O)cn2)CC1` [Example I-71, 4-Methoxy-3,4,5,6-tetrahydro-2H-[1,2′]bipyridinyl-5′-carboxylic acid (7-chloro-4-oxo-1-phenyl-1,4-dihydro-quinolin-3-ylmethyl)-amide] registered an IC50 in experiment [1] of 26 nM. The same molecule gave an EC50 in experiment [2] of 17000 nM.

In turn, `NC(=O)N1CCN(c2ccc(C(=O)NCc3cn(-c4ccccc4)c4cc(Cl)ccc4c3=O)cn2)CC1` [Example I-73, 4-{5-[(7-Chloro-4-oxo-1-phenyl-1,4-dihydro-quinolin-3-ylmethyl)-carbamoyl]-pyridin-2-yl}-piperazine-1-carboxylic acid amide] registered a concentration for half-maximal inhibition (IC50) in experiment [1] of 29 nM. In addition, the concentration for a half-maximal effect (EC50) in experiment [2] was 100000 nM.

In turn, `COC(=O)c1c(CNC(=O)c2ccc3cc[nH]c3c2)c(=O)c2ccc(C(F)(F)F)nc2n1-c1ccccc1` [Example I-158, 3-{[(1H-Indole-6-carbonyl)-amino]-methyl}-4-oxo-1-phenyl-7-trifluoromethyl-1,4-dihydro-[1,8]naphthyridine-2-carboxylic acid methyl ester] registered an IC50 in experiment [1] of 79 nM. The molecule further returned a 50% effective concentration (EC50) in experiment [2] of 10000 nM.

As to `O=C(NCc1cn(-c2ccccc2)c2cc(Cl)ccc2c1=O)c1ccnc(N2CCOCC2)c1` [Example I-31, N-(7-Chloro-4-oxo-1-phenyl-1,4-dihydro-quinolin-3-ylmethyl)-2-morpholin-4-yl-isonicotinamide], in experiment [1], the IC50 came out at 31 nM. The same molecule yielded an EC50 in experiment [2] of 30000 nM.

`CN(C)C(=O)c1c(CNC(=O)c2cnc(N3CCOCC3)s2)c(=O)c2ccc(Cl)cc2n1-c1ccccc1` [Example I-14, 7-Chloro-3-{[(2-morpholin-4-yl-thiazole-5-carbonyl)-amino]-methyl}-4-oxo-1-phenyl-1,4-dihydro-quinoline-2-carboxylic acid dimethylamide] displayed a concentration for half-maximal inhibition (IC50) in experiment [1] of 36 nM. The molecule also had a concentration for a half-maximal effect (EC50) in experiment [2] of 25000 nM.

In turn, `Cn1cc(C(=O)NCc2cn(-c3ccccc3F)c3cc(F)ccc3c2=O)cn1` [Example I-104, 1-Methyl-1H-pyrazole-4-carboxylic acid [7-fluoro-1-(2-fluoro-phenyl)-4-oxo-1,4-dihydro-quinolin-3-ylmethyl]-amide] returned an IC50 in experiment [1] of 120 nM. Further, a half-maximal effect in experiment [2] (EC50) was put at 100000 nM.

In experiment [1], `COC(=O)c1c(CNC(=O)c2cccc(OC)c2)c(=O)c2ccc(OC)cc2n1-c1ccccc1` [Example I-161, 7-Methoxy-3-[(3-methoxy-benzoylamino)-methyl]-4-oxo-1-phenyl-1,4-dihydro-quinoline-2-carboxylic acid methyl ester] came in with an IC50 of 32 nM. This molecule also returned an EC50 in experiment [2] of 18000 nM.

Regarding `COC(=O)c1c(CNC(=O)c2ccc(-c3cnco3)cc2)c(=O)c2ccc(Cl)cc2n1-c1ccccc1` [Example I-110, 7-Chloro-3-[(4-oxazol-5-yl-benzoylamino)-methyl]-4-oxo-1-phenyl-1,4-dihydro-quinoline-2-carboxylic acid methyl ester], in experiment [1], half-maximal inhibition (IC50) was put at 4 nM. The same molecule displayed a concentration giving a half-maximal response (EC50) in experiment [2] of 4000 nM.

With `COC(=O)c1c(CNC(=O)c2ccc(S(N)(=O)=O)cc2)c(=O)c2ccc(Cl)cc2n1-c1ccccc1` [Example I-115, 7-Chloro-4-oxo-1-phenyl-3-[(4-sulfamoyl-benzoylamino)-methyl]-1,4-dihydro-quinoline-2-carboxylic acid methyl ester], the midpoint of inhibition in experiment [1], the IC50, lay at 8 nM. For the same molecule, the EC50 in experiment [2] turned out to be 2400 nM.

`CN1CCN(c2ncc(C(=O)NCc3cn(-c4ccccc4)c4cc(Cl)ccc4c3=O)s2)CC1` [Example I-95, 2-(4-Methyl-piperazin-1-yl)-thiazole-5-carboxylic acid (7-chloro-4-oxo-1-phenyl-1,4-dihydro-quinolin-3-ylmethyl)-amide]: the IC50 in experiment [1] came to 40 nM. Also, the EC50 in experiment [2] was found to be 22000 nM.

`CC(C)(C)OC(=O)N1CC2CC1CN2c1ccc(C(=O)NCc2cn(-c3ccccc3)c3cc(Cl)ccc3c2=O)cn1` (centres unmarked) [Example I-62, 5-{5-[(7-Chloro-4-oxo-1-phenyl-1,4-dihydro-quinolin-3-ylmethyl)-carbamoyl]-pyridin-2-yl}-2,5-diaza-bicyclo[2.2.1]heptane-2-carboxylic acid tert-butyl ester]: the IC50 in experiment [1] came to 11 nM. This molecule returned an EC50 in experiment [2] of 13000 nM.

Regarding `COC(=O)c1c(CNC(=O)c2ccc(Cl)cc2)c(=O)c2ccc(Cl)cc2n1-c1ccccc1` [Example I-132, 7-Chloro-3-[(4-chloro-benzoylamino)-methyl]-4-oxo-1-phenyl-1,4-dihydro-quinoline-2-carboxylic acid methyl ester], half-maximal inhibition in experiment [1] (IC50) was put at 15 nM. The molecule also returned an EC50 in experiment [2] of 9200 nM.

In experiment [1], `COC(=O)c1c(CNC(=O)c2ccc(Cl)cc2)c(=O)c2ccc(OC)cc2n1-c1ccccc1` [Example I-168, 3-[(4-Chloro-benzoylamino)-methyl]-7-methoxy-4-oxo-1-phenyl-1,4-dihydro-quinoline-2-carboxylic acid methyl ester] gave an IC50 of 100 nM. Further, the EC50 in experiment [2] came to 32000 nM.

The molecule `COC(=O)c1c(CNC(=O)c2ccc(OC)c(OC)c2)c(=O)c2ccc(Cl)cc2n1-c1ccccc1` [Example I-143, 7-Chloro-3-[(3,4-dimethoxy-benzoylamino)-methyl]-4-oxo-1-phenyl-1,4-dihydro-quinoline-2-carboxylic acid methyl ester] had an IC50 in experiment [1] of 39 nM. In addition, in experiment [2], a half-maximal effect (EC50) was put at 1000 nM.

Source of the values: US8501732B2, “Aminomethyl quinolone compounds” (Hoffmann-La Roche Inc., priority 2011, dated 2013).
